Each structure is given as a SMILES string. Active and inactive are the calls of the source. The rule behind the calls is not given here.

This assay concerns PO3. Nature of the assay: Antitumor activity in mouse PO3 cells xenografted mouse at 304.5 mg/kg after 31 days. In kind it is functional, organism-based. Also on record: dose 304.5 mg/kg.

For the molecule `CC/C=C/[C@]1(CC)C[C@@H](CC)[C@H](CC(=O)OCC)OO1`, the result was inactive.

These data come from ChEMBL document CHEMBL1150934, “Cyclic polyketide peroxides and acyclic diol analogues from the sponge Plakortis lita” (J Nat Prod, 1998).
